From US8143293B2, “Kinase inhibitors useful for the treatment of myleoprolific diseases and other proliferative diseases” (Deciphera Pharmaceuticals, LLC, priority 2007, dated 2012)

How the values were obtained:
[1] = molecular target: T1, T315I Abl kinase (SEQ ID NO:2) (Homo sapiens, UniProt P00519, T315I); test: T315I Abl kinase (SEQ ID NO:2) assay, pyruvate kinase/lactate dehydrogenase coupled; conditions: 1 h preincubation, ATP 500 μM; read-out: Biochemical IC50, Abl T315I Enzyme Assay
T1 construct: purchased deCode Genetics
T1 sequence (P00519 with tags, fused parts or gaps T315I): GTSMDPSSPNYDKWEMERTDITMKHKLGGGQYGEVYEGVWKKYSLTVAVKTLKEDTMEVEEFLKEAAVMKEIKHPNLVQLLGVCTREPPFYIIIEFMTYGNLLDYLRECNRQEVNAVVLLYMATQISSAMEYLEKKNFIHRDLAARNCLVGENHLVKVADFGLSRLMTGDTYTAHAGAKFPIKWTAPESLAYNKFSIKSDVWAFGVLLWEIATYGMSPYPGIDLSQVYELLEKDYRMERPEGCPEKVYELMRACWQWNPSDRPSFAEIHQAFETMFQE
Procedure: Abl Kinase (SEQ ID NO:2) Assay
Activity of T315I Abl kinase (SEQ ID NO:2) was determined by following the production of ADP from the kinase reaction through coupling with the pyruvate kinase/lactate dehydrogenase system (e.g., Schindler, et al. Science (2000) 289, 1938-1942). In this assay, the oxidation of NADH (thus the decrease at A340 nm) was continuously monitored spectrophometrically. The reaction mixture (100 μl) contained Abl kinase (4.4 nM, […] Abl from deCode Genetics), peptide substrate (EAIYAAPFAKKK, 0.2 mM), MgCl2 (10 mM), pyruvate kinase (4 units), lactate dehydrogenase (0.7 units), phosphoenol pyruvate (1 mM), and NADH (0.28 mM) in 90 mM Tris buffer containing 0.2% octyl-glucoside and 1% DMSO, pH 7.5. Test compounds were incubated with T315I Abl (SEQ ID NO:2) and other reaction reagents at 30° C. for 1 h before ATP (500 μM) was added to start the reaction. The absorption at 340 nm was monitored continuously for 2 hours at 30° C. on Polarstar Optima plate reader (BMG). The reaction rate was calculated using the 1.0 to 2.0 h time frame. Percent inhibition was obtained by comparison of reaction rate with that of a control (i.e. with no test compound). IC50 values were calculated from a series of percent inhibition values determined at a range of inhibitor concentrations using software routines as implemented in the GraphPad Prism software package.

[2] = molecular target: T2, c-Kit kinase (SEQ ID NO:9) (Homo sapiens, UniProt P10721); test: C-Kit kinase (SEQ ID NO:9) assay, pyruvate kinase/lactate dehydrogenase coupled; conditions: <2 min preincubation, ATP 200 μM; read-out: Biochemical IC50, c-Kit Enzyme Assay
T2 construct: contained c-Kit (cKIT residues T544-V976, from ProQinase, 5.4 nM); purchased ProQinase
Procedure: C-Kit Kinase (SEQ ID NO:9) Assay
Activity of c-Kit kinase (SEQ ID NO:9) was determined by following the production of ADP from the kinase reaction through coupling with the pyruvate kinase/lactate dehydrogenase system (e.g., Schindler, et al. Science (2000) 289, 1938-1942). In this assay, the oxidation of NADH (thus the decrease at A340 nm) was continuously monitored spectrophometrically. The reaction mixture (100 μl) contained c-Kit (cKIT residues T544-V976, from ProQinase, 5.4 nM), polyE4Y (1 mg/ml), MgCl2 (10 mM), pyruvate kinase (4 units), lactate dehydrogenase (0.7 units), phosphoenol pyruvate (1 mM), and NADH (0.28 mM) in 90 mM Tris buffer containing 0.2% octyl-glucoside and 1% DMSO, pH 7.5. Test compounds were incubated with […] (SEQ ID NO:9) and other reaction reagents at 22° C. for <2 min before ATP (200 μM) was added to start the reaction. The absorption at 340 nm was monitored continuously for 0.5 hours at 30° C. on Polarstar Optima plate reader (BMG). The reaction rate was calculated using the 0 to 0.5 h time frame. Percent inhibition was obtained by comparison of reaction rate with that of a control (i.e. with no test compound). IC50 values were calculated from a series of percent inhibition values determined at a range of inhibitor concentrations using software routines as implemented in the GraphPad Prism software package.

[3] = molecular target: T3, BaF3 cells transfected with wild type p210 BCR-Abl (Homo sapiens, UniProt P00519); test: Ba/F3 p210 whole cell proliferation assay; format: cell-based; conditions: 72 hours, Cell Titer Blue; read-out: Whole Cell Antiproliferation IC50, Ba/F3 p210 whole cell proliferation assay
T3 construct: fused on or other part: P11274 (Breakpoint cluster region protein)

T2 sequence (P10721 with tags, fused parts or gaps): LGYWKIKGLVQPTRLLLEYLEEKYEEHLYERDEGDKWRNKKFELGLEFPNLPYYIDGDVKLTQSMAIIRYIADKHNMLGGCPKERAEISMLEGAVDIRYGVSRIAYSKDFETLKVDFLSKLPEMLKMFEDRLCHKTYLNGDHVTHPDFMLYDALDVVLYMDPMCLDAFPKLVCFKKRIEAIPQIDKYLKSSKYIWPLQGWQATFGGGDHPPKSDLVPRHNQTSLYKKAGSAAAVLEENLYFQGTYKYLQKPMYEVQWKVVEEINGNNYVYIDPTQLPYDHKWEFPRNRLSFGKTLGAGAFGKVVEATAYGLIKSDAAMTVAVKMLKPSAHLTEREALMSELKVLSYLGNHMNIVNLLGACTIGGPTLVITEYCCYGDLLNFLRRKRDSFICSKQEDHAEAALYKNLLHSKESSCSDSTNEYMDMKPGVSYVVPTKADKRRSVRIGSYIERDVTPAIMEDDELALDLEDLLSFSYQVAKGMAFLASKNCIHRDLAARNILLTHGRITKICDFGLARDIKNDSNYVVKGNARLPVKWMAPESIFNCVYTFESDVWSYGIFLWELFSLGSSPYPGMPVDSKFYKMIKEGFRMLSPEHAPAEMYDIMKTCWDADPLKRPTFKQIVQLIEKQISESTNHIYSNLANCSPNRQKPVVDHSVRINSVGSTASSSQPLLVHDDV

Row | Molecule | IC50 [1] [µM] | IC50 [2] [µM] | GI50 [3] [µM]
1 | 1-(2-fluoro-4-(2-(1-methyl-1H-pyrazol-4-yl)pyridin-4-yloxy)phenyl)-3-(3-(1-methylcyclopentyl)isoxazol-5-yl)urea [Example 14] | < 0.1 | < 0.1 | < 0.1
2 | Cn1cc(-c2cc(Oc3ccc(NC(=O)Nc4cc(C(C)(C)C)no4)c(F)c3)ccn2)cn1 [Example 1, 1-(3-t-butylisoxazol-5-yl)-3-(2-fluoro-4-(2-(1-methyl-1H-pyrazol-4-yl)pyridin-4-yloxy)phenyl)urea] | < 0.1 | < 0.1 | < 0.1
3 | Cn1cc(-c2cc(Oc3ccc(NC(=O)Nc4cc(C(C)(C)C)nn4C)c(F)c3)ccn2)cn1 [Example 2, 1-(3-t-butyl-1-methyl-1H-pyrazol-5-yl)-3-(2-fluoro-4-(2-(1-methyl-1H-pyrazol-4-yl)pyridin-4-yloxy)phenyl)urea] | < 0.1 | < 0.1 | < 0.1
4 | Cn1cc(-c2cc(Oc3ccc(NC(=O)Nc4cccc(C(F)(F)F)c4)c(F)c3)ccn2)cn1 [Example 3, 1-(2-fluoro-4-(2-(1-methyl-1H-pyrazol-4-yl)pyridin-4-yloxy)phenyl)-3-(3-(trifluoromethyl)phenyl)urea] | < 0.1 | < 0.1 | < 0.1
5 | Cn1cc(-c2cc(Oc3ccc(NC(=O)Nc4cnn(C(C)(C)C)c4)c(F)c3)ccn2)cn1 [Example 5, 1-(1-t-butyl-1H-pyrazol-4-yl)-3-(2-fluoro-4-(2-(1-methyl-1H-pyrazol-4-yl)pyridin-4-yloxy)phenyl)urea] | < 0.1 | < 0.1 | < 0.1
6 | Cn1cc(-c2cc(Oc3ccc(NC(=O)Nc4cncc(C(F)(F)F)c4)cc3)ccn2)cn1 [Example 6, 1-(4-(2-(1-methyl-1H-pyrazol-4-yl)pyridin-4-yloxy)phenyl)-3-(5-(trifluoromethyl)pyridin-3-yl)urea] | < 0.1 | < 0.1 | < 0.1
7 | Cn1cc(-c2cc(Oc3ccc(NC(=O)Nc4cnn(C(C)(C)C)c4)c(F)c3F)ccn2)cn1 [Example 8, 1-(1-tert-butyl-1H-pyrazol-4-yl)-3-(2,3-difluoro-4-(2-(1-methyl-1H-pyrazol-4-yl)pyridin-4-yloxy)phenyl)urea] | < 0.1 | < 0.1 | < 0.1
8 | Cn1cc(-c2cc(Oc3ccc(NC(=O)Nc4cnn(C(C)(C)C)c4C(F)(F)F)c(F)c3)ccn2)cn1 [Example 9, 1-(1-tert-butyl-5-(trifluoromethyl)-1H-pyrazol-4-yl)-3-(2-fluoro-4-(2-(1-methyl-1H-pyrazol-4-yl)pyridin-4-yloxy)phenyl)urea] | < 100 | < 0.1 | < 0.1
9 | Cc1c(NC(=O)Nc2ccc(Oc3ccnc(-c4cnn(C)c4)c3)cc2F)cnn1C(C)(C)C [Example 10, 1-(1-tert-butyl-5-methyl-1H-pyrazol-4-yl)-3-(2-fluoro-4-(2-(1-methyl-1H-pyrazol-4-yl)pyridin-4-yloxy)phenyl)urea] | < 10 | < 0.1 | < 0.1
10 | Cn1cc(-c2cc(Oc3ccc(NC(=O)Nc4nnc(C(C)(C)C)s4)c(F)c3)ccn2)cn1 [Example 11, 1-(5-tert-butyl-1,3,4-thiadiazol-2-yl)-3-(2-fluoro-4-(2-(1-methyl-1H-pyrazol-4-yl)pyridin-4-yloxy)phenyl)urea] | < 0.1 | < 0.1 | < 0.1
11 | CN(C)CCn1nc(C(C)(C)C)cc1NC(=O)Nc1ccc(Oc2ccnc(-c3cnn(C)c3)c2)cc1F [Example 12, 1-(3-tert-butyl-1-(2-(dimethylamino)ethyl)-11H-pyrazol-5-yl)-3-(2-fluoro-4-(2-(1-methyl-1H-pyrazol-4-yl)pyridin-4-yloxy)phenyl)urea] | < 0.1 | < 0.1 | < 0.1
12 | Cn1cc(-c2cc(Oc3ccc(NC(=O)Nc4cnn(C5CCCC5)c4)c(F)c3)ccn2)cn1 [Example 15, 1-(1-cyclopentyl-1H-pyrazol-4-yl)-3-(2-fluoro-4-(2-(1-methyl-1H-pyrazol-4-yl)pyridin-4-yloxy)phenyl)urea] | < 0.1 | < 0.1 | < 0.1

Results, then the molecule that gave them:

Row | IC50 [1] [µM] | IC50 [2] [µM] | GI50 [3] [µM] | Molecule
13 | < 0.1 | < 0.1 | < 0.1 | Cn1cc(-c2cc(Oc3ccc(NC(=O)Nc4cncc(C(F)(F)F)c4)c(F)c3)ccn2)cn1 [Example 21, 1-(2-fluoro-4-(2-(1-methyl-1H-pyrazol-4-yl)pyridin-4-yloxy)phenyl)-3-(5-(trifluoromethyl)pyridin-3-yl)urea]
14 | < 0.1 | < 0.1 | < 0.1 | CC(C)c1cncc(NC(=O)Nc2ccc(Oc3ccnc(-c4cnn(C)c4)c3)cc2F)c1 [Example 22, 1-(2-fluoro-4-(2-(1-methyl-1H-pyrazol-4-yl)pyridin-4-yloxy)phenyl)-3-(5-isopropylpyridin-3-yl)urea]
15 | < 0.1 | < 0.1 | < 0.1 | Cn1cc(-c2cc(Oc3ccc(NC(=O)Nc4cc(C(C)(C)C)no4)c(F)c3F)ccn2)cn1 [Example 25, 1-(3-tert-butylisoxazol-5-yl)-3-(2,3-difluoro-4-(2-(1-methyl-1H-pyrazol-4-yl)pyridin-4-yloxy)phenyl)urea]
16 | < 0.1 | < 0.1 | < 0.1 | Cn1cc(-c2cc(Oc3ccc(NC(=O)Nc4cc(C(F)(F)F)c[nH]c4=O)c(F)c3)ccn2)cn1 [Example 27, 1-(2-fluoro-4-(2-(1-methyl-1H-pyrazol-4-yl)pyridin-4-yloxy)phenyl)-3-(2-oxo-5-(trifluoromethyl)-1,2-dihydropyridin-3-yl)urea]
17 | < 0.1 | < 0.1 | < 0.1 | Cc1oc(C(C)(C)C)cc1NC(=O)Nc1ccc(Oc2ccnc(-c3cnn(C)c3)c2)cc1F [Example 28, 1-(5-tert-butyl-2-methylfuran-3-yl)-3-(2-fluoro-4-(2-(1-methyl-1H-pyrazol-4-yl)pyridin-4-yloxy)phenyl)urea]
18 | < 100 | < 100 | < 1 | Cn1cc(-c2cc(Oc3ccc(NC(=O)Nc4cnc(C(C)(C)C)nc4N4CCOCC4)c(F)c3)ccn2)cn1 [Example 41, 1-(2-tert-butyl-4-morpholinopyrimidin-5-yl)-3-(2-fluoro-4-(2-(1-methyl-1H-pyrazol-4-yl)pyridin-4-yloxy)phenyl)urea]
19 | < 0.1 | < 0.1 | < 0.1 | Cn1cc(-c2cc(Oc3ccc(NC(=O)Nc4cc(C(F)(F)F)cnc4-c4cnn(C)c4)c(F)c3)ccn2)cn1 [Example 42, 1-(2-fluoro-4-(2-(1-methyl-1H-pyrazol-4-yl)pyridin-4-yloxy)phenyl)-3-(2-(1-methyl-1H-pyrazol-4-yl)-5-(trifluoromethyl)pyridin-3-yl)urea]
